Data reported in article PMC7584476, “Safety and efficacy of BAY1436032 in IDH1-mutant AML: phase I study results” (Leukemia, 2020).

System: subjects with mIDH1 advanced AML
Test: Phase I study: safety and tolerability (TEAE, DLT, MTD, ECG)
Assay type: in vivo
Experimental: This study was an open-label, nonrandomized, multicenter phase I trial. Subjects were screened at 13 hospital sites in 2 countries (USA and Germany). The study was to consist of dose-escalation followed by dose-expansion. The MTD identified in dose-escalation was to be used in the dose-expansion. If MTD was not reached in dose-escalation, a dose for the expansion would be selected based on available PK, pharmacodynamic, safety, and efficacy data. BAY1436032 was administered twice-daily (BID) in continuous 28-day cycles. In dose-escalation, up to 9 evaluable subjects could be enrolled per cohort, with a minimum of 3 dose-limiting toxicity (DLT)-free evaluable subjects required prior to escalating to the next highest dose. Bayesian dose-DLT modeling was performed to help guide dosing decisions.
DLTs were differentially defined for nonhematopoietic versus hematopoietic toxicities. Nonhematopoietic toxicities of ≥grade 3 occurring during the first cycle of treatment were to be considered DLTs with the following exceptions: (1) Alopecia and nausea controlled by medical management; (2) Tumor lysis syndrome if successfully managed clinically and resolved within 7 days without any end-organ damage; (3) Differentiation syndrome (DS) if successfully managed clinically and resolved within 7 days without any end-organ damage; (4) Asymptomatic ≥grade 3 electrolyte abnormalities not considered clinically significant by the investigator. […] For certain toxicities such as laboratory assessments without a clear clinical correlate, a discussion between the investigator and the sponsor determined whether the adverse event (AE) should be assessed as a DLT.
DLTs identified during the first cycle of treatment were used to guide dose-escalation decisions and to determine the MTD, and if safety issues appeared in subsequent cycles they were also to be considered. Hydroxyurea was permitted during the first cycle if white blood cell (WBC) exceeded 20 × 10^9/L and was also permitted for treatment of DS.
Safety and tolerability were evaluated by analysis of adverse events, physical examinations, vital signs, ECOG performance status, and various laboratory assessments. For safety monitoring, subjects were scheduled for clinic visits every week for the initial three cycles of treatment, after which time visits could be reduced to every-other-week with investigator and sponsor agreement. Cardiac function was assessed with triplicate 12-lead electrocardiograms (ECG) at screening, C1-D1, C1-D2, C1-D15, D1 of every subsequent cycle, and at treatment end. […] AEs are presented by the Medical Dictionary for Regulatory Activities (MedDRA) v21.1.

SMILES: C[C@H]1C[C@@H](n2c(Nc3ccc(OC(F)(F)F)cc3)nc3cc(CCC(=O)O)ccc32)CC(C)(C)C1 [BAY1436032]
- TEAE Hypokalaemia Grade 1 (1200 mg BID, n=7): 1
- TEAE Hypokalaemia Grade 2 (1200 mg BID, n=7): 0
- TEAE Hypokalaemia Grade 3 (1200 mg BID, n=7): 0
- TEAE Hyponatraemia Grade 1 (1200 mg BID, n=7): 0
- TEAE Hyponatraemia Grade 3 (1200 mg BID, n=7): 0
- TEAE Hypophosphataemia Grade 1 (1200 mg BID, n=7): 0
- TEAE Hypophosphataemia Grade 2 (1200 mg BID, n=7): 0
- TEAE Leukocytosis Grade 2 (1200 mg BID, n=7): 1
- TEAE Leukocytosis Grade 3 (1200 mg BID, n=7): 0
- TEAE Lung infection Grade 3 (1200 mg BID, n=7): 1
- TEAE Lung infection Grade 5 (1200 mg BID, n=7): 0
- TEAE Nausea Grade 1 (1200 mg BID, n=7): 2
- TEAE Nausea Grade 2 (1200 mg BID, n=7): 0
- TEAE Nausea Grade 3 (1200 mg BID, n=7): 0
- TEAE Oedema peripheral Grade 1 (1200 mg BID, n=7): 2
- TEAE Oedema peripheral Grade 3 (1200 mg BID, n=7): 0
- TEAE Pain in extremity Grade 1 (1200 mg BID, n=7): 1
- TEAE Pain in extremity Grade 2 (1200 mg BID, n=7): 0
- TEAE Pneumonia Grade 1 (1200 mg BID, n=7): 0
- TEAE Pneumonia Grade 2 (1200 mg BID, n=7): 1
- TEAE Pneumonia Grade 3 (1200 mg BID, n=7): 1
- TEAE Pneumonia fungal Grade 2 (1200 mg BID, n=7): 0
- TEAE Pneumonia fungal Grade 3 (1200 mg BID, n=7): 0
- TEAE Pneumonia fungal Grade 4 (1200 mg BID, n=7): 0
- TEAE Productive cough Grade 1 (1200 mg BID, n=7): 1
- TEAE Productive cough Grade 2 (1200 mg BID, n=7): 0
- TEAE Pyrexia Grade 1 (1200 mg BID, n=7): 1
- TEAE Pyrexia Grade 2 (1200 mg BID, n=7): 0
- TEAE Pyrexia Grade 3 (1200 mg BID, n=7): 0
- TEAE Rash Grade 1 (1200 mg BID, n=7): 1
- TEAE Rash Grade 2 (1200 mg BID, n=7): 0
- TEAE Sepsis Grade 4 (1200 mg BID, n=7): 0
- TEAE Sepsis Grade 5 (1200 mg BID, n=7): 0
- TEAE Sinus tachycardia Grade 1 (1200 mg BID, n=7): 0
- TEAE Thrombocytopenia Grade 4 (1200 mg BID, n=7): 1
- TEAE Vomiting Grade 1 (1200 mg BID, n=7): 0
- TEAE Weight decreased Grade 1 (1200 mg BID, n=7): 1
- TEAE Weight decreased Grade 2 (1200 mg BID, n=7): 2
- TEAE Weight decreased Grade 3 (1200 mg BID, n=7): 0
- Related TEAE Decreased appetite Grade 1 (1500 mg BID, n=9): 0
- Related TEAE Decreased appetite Grade 2 (1500 mg BID, n=9): 0
- Related TEAE Diarrhea Grade 2 (1500 mg BID, n=9): 0
- Related TEAE Differentiation syndrome Grade 2 (1500 mg BID, n=9): 1
- Related TEAE Differentiation syndrome Grade 3 (1500 mg BID, n=9): 0
- Related TEAE Dyspnea Grade 1 (1500 mg BID, n=9): 0
- Related TEAE Dyspnea Grade 2 (1500 mg BID, n=9): 0
- Related TEAE Fatigue Grade 1 (1500 mg BID, n=9): 0
- Related TEAE Fatigue Grade 2 (1500 mg BID, n=9): 0
- Related TEAE Fatigue Grade 3 (1500 mg BID, n=9): 1
- Related TEAE Hypomagnesaemia Grade 1 (1500 mg BID, n=9): 1
- Related TEAE Nausea Grade 1 (1500 mg BID, n=9): 1
- Related TEAE Nausea Grade 2 (1500 mg BID, n=9): 0
- Related TEAE Sinus tachycardia Grade 1 (1500 mg BID, n=9): 1
- Related TEAE Vomiting Grade 1 (1500 mg BID, n=9): 1
- TEAE Abdominal pain upper Grade 1 (1500 mg BID, n=9): 2
- TEAE Abdominal pain upper Grade 2 (1500 mg BID, n=9): 1
- TEAE Acute kidney injury Grade 1 (1500 mg BID, n=9): 0
- TEAE Acute kidney injury Grade 2 (1500 mg BID, n=9): 0
- TEAE Acute kidney injury Grade 3 (1500 mg BID, n=9): 0
- TEAE Anaemia Grade 3 (1500 mg BID, n=9): 0
- TEAE Anaemia Grade 4 (1500 mg BID, n=9): 0
- TEAE Anxiety Grade 1 (1500 mg BID, n=9): 0
- TEAE Anxiety Grade 2 (1500 mg BID, n=9): 1
- TEAE Arthralgia Grade 1 (1500 mg BID, n=9): 1
- TEAE Arthralgia Grade 2 (1500 mg BID, n=9): 1
- TEAE Constipation Grade 1 (1500 mg BID, n=9): 3
- TEAE Constipation Grade 2 (1500 mg BID, n=9): 0
- TEAE Contusion Grade 1 (1500 mg BID, n=9): 1
- TEAE Contusion Grade 2 (1500 mg BID, n=9): 1
- TEAE Cough Grade 1 (1500 mg BID, n=9): 0
- TEAE Cough Grade 2 (1500 mg BID, n=9): 1
- TEAE Decreased appetite Grade 1 (1500 mg BID, n=9): 2
- TEAE Decreased appetite Grade 2 (1500 mg BID, n=9): 1
- TEAE Decreased appetite Grade 3 (1500 mg BID, n=9): 1
- TEAE Diarrhea Grade 1 (1500 mg BID, n=9): 2
- TEAE Diarrhea Grade 2 (1500 mg BID, n=9): 1
- TEAE Dry skin Grade 1 (1500 mg BID, n=9): 1
- TEAE Dyspnoea Grade 1 (1500 mg BID, n=9): 1
- TEAE Dyspnoea Grade 2 (1500 mg BID, n=9): 0
- TEAE Dyspnoea Grade 3 (1500 mg BID, n=9): 1
- TEAE Epistaxis Grade 1 (1500 mg BID, n=9): 2
- TEAE Epistaxis Grade 2 (1500 mg BID, n=9): 0
- TEAE Epistaxis Grade 3 (1500 mg BID, n=9): 0
- TEAE Fall Grade 1 (1500 mg BID, n=9): 2
- TEAE Fatigue Grade 1 (1500 mg BID, n=9): 1
- TEAE Fatigue Grade 2 (1500 mg BID, n=9): 1
- TEAE Fatigue Grade 3 (1500 mg BID, n=9): 2
- TEAE Febrile neutropenia Grade 3 (1500 mg BID, n=9): 2
- TEAE General physical health deterioration Grade 3 (1500 mg BID, n=9): 2
- TEAE General physical health deterioration Grade 5 (1500 mg BID, n=9): 1
- TEAE Gingivitis Grade 1 (1500 mg BID, n=9): 0
- TEAE Haematuria Grade 1 (1500 mg BID, n=9): 0
- TEAE Haematuria Grade 2 (1500 mg BID, n=9): 0
- TEAE Haematuria Grade 3 (1500 mg BID, n=9): 1
- TEAE Headache Grade 1 (1500 mg BID, n=9): 0
- TEAE Headache Grade 2 (1500 mg BID, n=9): 0
- TEAE Headache Grade 3 (1500 mg BID, n=9): 1
- TEAE Hyperkalaemia Grade 1 (1500 mg BID, n=9): 0
- TEAE Hyperkalaemia Grade 4 (1500 mg BID, n=9): 0
- TEAE Hypertension Grade 2 (1500 mg BID, n=9): 2
- TEAE Hypertension Grade 3 (1500 mg BID, n=9): 0
- TEAE Hyperuricaemia Grade 1 (1500 mg BID, n=9): 1
- TEAE Hyperuricaemia Grade 3 (1500 mg BID, n=9): 0
- TEAE Hypokalaemia Grade 1 (1500 mg BID, n=9): 0
- TEAE Hypokalaemia Grade 2 (1500 mg BID, n=9): 1
- TEAE Hypokalaemia Grade 3 (1500 mg BID, n=9): 1
- TEAE Hyponatraemia Grade 1 (1500 mg BID, n=9): 0
- TEAE Hyponatraemia Grade 3 (1500 mg BID, n=9): 1
- TEAE Hypophosphataemia Grade 1 (1500 mg BID, n=9): 1
- TEAE Hypophosphataemia Grade 2 (1500 mg BID, n=9): 1
- TEAE Leukocytosis Grade 2 (1500 mg BID, n=9): 0
- TEAE Leukocytosis Grade 3 (1500 mg BID, n=9): 1
- TEAE Lung infection Grade 3 (1500 mg BID, n=9): 0
- TEAE Lung infection Grade 5 (1500 mg BID, n=9): 0
- TEAE Nausea Grade 1 (1500 mg BID, n=9): 1
- TEAE Nausea Grade 2 (1500 mg BID, n=9): 1
- TEAE Nausea Grade 3 (1500 mg BID, n=9): 2
- TEAE Oedema peripheral Grade 1 (1500 mg BID, n=9): 0
- TEAE Oedema peripheral Grade 3 (1500 mg BID, n=9): 1
- TEAE Pain in extremity Grade 1 (1500 mg BID, n=9): 0
- TEAE Pain in extremity Grade 2 (1500 mg BID, n=9): 1
- TEAE Pneumonia Grade 1 (1500 mg BID, n=9): 1
- TEAE Pneumonia Grade 2 (1500 mg BID, n=9): 0
- TEAE Pneumonia Grade 3 (1500 mg BID, n=9): 1
- TEAE Pneumonia fungal Grade 2 (1500 mg BID, n=9): 1
- TEAE Pneumonia fungal Grade 3 (1500 mg BID, n=9): 1
- TEAE Pneumonia fungal Grade 4 (1500 mg BID, n=9): 1
- TEAE Productive cough Grade 1 (1500 mg BID, n=9): 0
- TEAE Productive cough Grade 2 (1500 mg BID, n=9): 1
- TEAE Pyrexia Grade 1 (1500 mg BID, n=9): 2
- TEAE Pyrexia Grade 2 (1500 mg BID, n=9): 0
- TEAE Pyrexia Grade 3 (1500 mg BID, n=9): 3
- TEAE Rash Grade 1 (1500 mg BID, n=9): 0
- TEAE Rash Grade 2 (1500 mg BID, n=9): 2
- TEAE Sepsis Grade 4 (1500 mg BID, n=9): 0
